From ChEMBL document CHEMBL1136331, “Photoregulation of deacylation rate of acyl trypsin derived from photoresponsive inverse substrate” (Bioorg Med Chem Lett, 2003)

Columns and labels:
[1] = Kinetic parameter for rate constant of acylation step (k2) was determined
[2] = Ratio of kinetic parameter (k2) to that of kinetic parameter(Ks)
[3] = Kinetic parameter for rate constant of deacylation step (k3) was determined

SMILES | k2 [1] [s⁻¹] | k2/Ks [2] [M⁻¹ s⁻¹] | k3 [3] [s⁻¹]
N=C(N)Nc1ccc(OC(=O)c2ccc(/N=N\c3ccccc3)cc2)cc1 | 7.75 | 164000 | 0.000702
N=C(N)Nc1ccc(OC(=O)c2ccc(/N=N/c3ccccc3)cc2)cc1 | 1.06 | 151000 | 0.000378
